Measurements reported in patent US20070299129A1, “Compounds and derivatives for the treatment of medical conditions by modulating hormone-sensitive lipase activity” (DEVIRIS INC., priority 2006, published 2007).
“And” between values parts separate entries of the source, which are not always exact repeats. Equal entries are not always repeated.

Legend:
COX-2 = target: T1, COX-2 (Homo sapiens, UniProt P35354); conditions: Smith et al., Organic Letters, 7:5075-5078, 2005; cited from earlier work
T1 sequence (P35354 18-604): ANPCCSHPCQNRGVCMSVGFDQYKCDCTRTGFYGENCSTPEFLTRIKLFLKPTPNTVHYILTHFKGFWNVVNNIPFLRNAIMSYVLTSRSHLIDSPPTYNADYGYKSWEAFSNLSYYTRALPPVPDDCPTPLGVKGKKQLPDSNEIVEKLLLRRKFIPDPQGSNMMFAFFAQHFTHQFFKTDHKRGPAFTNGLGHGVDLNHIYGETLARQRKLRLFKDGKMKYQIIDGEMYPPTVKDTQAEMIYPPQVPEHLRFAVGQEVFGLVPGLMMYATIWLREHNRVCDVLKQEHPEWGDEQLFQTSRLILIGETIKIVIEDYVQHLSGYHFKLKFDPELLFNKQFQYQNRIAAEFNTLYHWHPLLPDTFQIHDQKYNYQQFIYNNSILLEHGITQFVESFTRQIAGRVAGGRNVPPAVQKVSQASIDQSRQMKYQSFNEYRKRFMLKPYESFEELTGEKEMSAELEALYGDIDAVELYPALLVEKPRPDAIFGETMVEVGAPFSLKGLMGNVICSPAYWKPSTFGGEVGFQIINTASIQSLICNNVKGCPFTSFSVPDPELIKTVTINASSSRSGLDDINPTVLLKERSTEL

[1] = target: T2, recombinant His-HSL (hormone-sensitive lipase) (Rattus norvegicus, UniProt P15304); assay: Assay for potency of inhibition on HSL activity (neutral cholesteryl ester hydrolase activity, cholesteryl [1-14C]oleate), Example 1; type: biochemical; conditions: for % inhibition of HSL: in the presence of DTT (1 mM), inhibitor range 0-2.4 mg/mL (FIG. 1, Table 1); for HSL Activity (DPM) (average): HSL + DTT (1 mM), control without inhibitor 1585.64 DPM
T2 construct: cloning full-length rat HSL cDNA into the SmaI site of pAcHLT-A; His6 (N); made in house; host or cells: Sf21 insect cells (baculovirus, BaculoGold)
T2 sequence (P15304 1-768 isoform P15304-2): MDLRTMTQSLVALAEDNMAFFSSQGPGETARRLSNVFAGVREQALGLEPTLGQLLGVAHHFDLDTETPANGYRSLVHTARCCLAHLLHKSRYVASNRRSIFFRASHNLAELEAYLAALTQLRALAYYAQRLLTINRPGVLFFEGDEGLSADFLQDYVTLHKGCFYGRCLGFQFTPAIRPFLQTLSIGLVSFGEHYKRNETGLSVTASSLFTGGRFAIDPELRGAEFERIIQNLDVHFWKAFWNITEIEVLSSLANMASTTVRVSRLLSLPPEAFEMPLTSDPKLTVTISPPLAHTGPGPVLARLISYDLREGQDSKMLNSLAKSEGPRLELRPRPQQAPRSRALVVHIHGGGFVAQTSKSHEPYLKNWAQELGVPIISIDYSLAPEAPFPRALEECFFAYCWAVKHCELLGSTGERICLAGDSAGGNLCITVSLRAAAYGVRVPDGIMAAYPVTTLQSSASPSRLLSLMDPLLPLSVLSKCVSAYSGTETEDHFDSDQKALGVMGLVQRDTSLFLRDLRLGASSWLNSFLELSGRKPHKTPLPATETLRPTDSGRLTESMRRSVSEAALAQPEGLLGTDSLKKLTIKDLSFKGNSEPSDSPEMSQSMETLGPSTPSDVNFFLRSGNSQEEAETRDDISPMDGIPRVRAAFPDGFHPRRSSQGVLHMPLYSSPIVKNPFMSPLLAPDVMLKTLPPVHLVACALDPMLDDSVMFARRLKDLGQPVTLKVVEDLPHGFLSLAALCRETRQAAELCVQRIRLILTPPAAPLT
Experimental: Production of Recombinant HSL: Recombinant His-HSL was generated by cloning full-length rat HSL cDNA into the SmaI site of pAcHLT-A containing a His6 tag. pAcHLT-A-HSL (5 μg) was co-transfected into Sf21 cells with 0.5 μg of BaculoGold™ DNA using the transfection kit from the manufacturer. The titer of the recombinant virus was determined using an end point dilution assay, and the virus was re-amplified to a final titer of 1.5×10^7 pfu/ml. To produce recombinant proteins, Sf21 cells were grown in 150 mm Petri dishes and each 2×10^7 cells were infected with 100 μl of the high titer recombinant virus; cells were harvested three days after infection. After harvesting and cell extraction, His-HSL was purified on a Ni-agarose column.
Preparation of Substrate for Neutral Cholesteryl Ester Hydrolase Activity Assay: HSL activity was determined as neutral cholesteryl ester hydrolase activity using a cholesteryl[1-14C]oleate emulsion for measurement of cellular activity, as described previously. Substrate for the cholesteryl ester assay was prepared by adding 1.25 μCi cholesteryl [1-14C]oleate (purified by thin-layer chromatography), 0.043 mmol phosphatidylcholine, and 0.011 mmol cholesteryl oleate into 2.5 mL of 100 mM potassium phosphate buffer (pH 7.0) containing 5 mM sodium taurocholate. The substrate solution was vortexed and then sonicated for 3 hours with a Branson Sonifier/Cell Disruptor model W-350 on an output setting of 5.0 (50%). The substrate was centrifuged at 3000 rpm for 15 min to remove metallic fragments released by the probe and stored under nitrogen at 4° C. for up to one week.
Preparation of Inhibitor Stock Solution: Inhibitors (fraction # O-4355, O-4350, O-4361, O-4456, O-4457) were obtained from olives, olive oil, roots, bark and leaves from olea europeae species as previously described (Paiva-Martins et al., J. Agric. Food Chem., 49:4214-4219, 2001) and dissolved in 200 μL DMSO with 800 μL distilled water at a concentration of 10 mg/ml. This was regarded as stock solution. 0-60 μL of the stock solution were added to the HSL assay to achieve a final concentration of 0-2.4 mg/ml of the inhibitors. The same volume of DMSO without inhibitors was performed as a control.
Assay for Potency of Inhibition on HSL Activity by the Inhibitors: Aliquots of recombinant HSL protein and various concentrations of inhibitors (0-2.4 mg/mL final concentration) were mixed and the volume adjusted to 100 μL and mixed with 140 μL 0.05% bovine serum albumin in 100 mM potassium phosphate, pH 7.0. After the addition of 10 μL of substrate (100 μM final concentration), the assay was carried out at 37° C. for 60 min. The reaction was stopped by the addition of chloroform:methanol:heptane (250:230:180). After the addition of borate/carbonate buffer (0.1 M, pH, 10.5), the tubes were vortexed and centrifuged, and aliquots of the upper phase were taken for liquid scintillation counting in a Beckman scintillation counter.

Compound | anti-COX-2 activity (COX-2) | % inhibition of HSL [1] | HSL Activity (DPM) (average) ([1]; inhibitor 0.4 mg/mL) | HSL Activity (DPM) (average) ([1]; inhibitor 0.8 mg/mL) | HSL Activity (DPM) (average) ([1]; inhibitor 1.2 mg/mL) | HSL Activity (DPM) (average) ([1]; inhibitor 1.6 mg/mL) | HSL Activity (DPM) (average) ([1]; inhibitor 2.0 mg/mL) | HSL Activity (DPM) (average) ([1]; inhibitor 2.4 mg/mL)
C/C=C(/C=O)[C@@H](CC=O)CC(=O)OCCc1ccc(O)cc1 [O-4456, para-hydroxyphenylelenolic acid dialdehyde] | having anti-COX-2 activity | 98% and 98.42% | 123.5 | 52.6035 | 51.145 | 88.595 | 49.56 | 25.035
CC=C(C=O)C(CC=O)CC(=O)OCCc1ccc(O)c(O)c1 (stereo not drawn) [O-4457, 3,4-dihydroxyphenylelenolic acid dialdehyde] |  | 97% and 97.95% | 214.85 | 87.105 | 48.025 | 49.885 | 39.545 | 32.495
